Experimental data taken from ChEMBL document CHEMBL1201861, “Genomics of Drug Sensitity in Cancer screening data, Wellcome Trust Sanger Institute”.

Legend:
Assay in all cases: cells
COLO-741 = format: functional, cell-based; settings: Homo sapiens
Description: SANGER: Inhibition of human COLO-741 cell growth in a cell viability assay.

GMS-10 = format: functional, cell-based; settings: Homo sapiens;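 note: growth inhibition of GMS-10 cells, read out as cell viability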
Description: SANGER: Inhibition of human GMS-10 cell growth in a cell viability assay.

H-EMC-SS = format: functional, cell-based; settings: Homo sapiens
Description: SANGER: Inhibition of human H-EMC-SS cell growth in a cell viability assay.

HCC1419 = format: functional, cell-based; settings: Homo sapiens;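 note: growth inhibition of human HCC1419 cells, read out as cell viability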
Description: SANGER: Inhibition of human HCC1419 cell growth in a cell viability assay.

HCC1569 = format: functional, cell-based; settings: Homo sapiens;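 note: growth inhibition of human HCC1569 cells, read out with a cell viability assay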
Description: SANGER: Inhibition of human HCC1569 cell growth in a cell viability assay.

HSC-2 = format: functional, cell-based; settings: Homo sapiens;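 note: growth inhibition of human HSC-2 cells, read out by a cell viability assay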
Description: SANGER: Inhibition of human HSC-2 cell growth in a cell viability assay.

HT-3 = format: functional, cell-based; settings: Homo sapiens;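 note: growth inhibition measured with a cell viability readout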
Description: SANGER: Inhibition of human HT-3 cell growth in a cell viability assay.

IGROV-1 = format: functional, cell-based; settings: Homo sapiens;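 note: reduction of IGROV-1 cell growth, read out with a viability assay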
Description: SANGER: Inhibition of human IGROV-1 cell growth in a cell viability assay.

KNS-62 = format: functional, cell-based; settings: Homo sapiens;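 note: inhibition of cell growth, read out with a cell viability assay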
Description: SANGER: Inhibition of human KNS-62 cell growth in a cell viability assay.

KP-4 = format: functional, cell-based; settings: Homo sapiens;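 note: human KP-4 cells, with growth inhibition read out through a cell viability assay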
Description: SANGER: Inhibition of human KP-4 cell growth in a cell viability assay.

MDA-MB-175-VII = format: functional, cell-based; settings: Homo sapiens
MKN-1 = format: functional, cell-based; settings: Homo sapiens;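 note: growth inhibition of human MKN1 cells, read out by a cell viability measurement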
Description: SANGER: Inhibition of human MKN1 cell growth in a cell viability assay.

NB14 = format: functional, cell-based, Homo sapiens; settings: Homo sapiens, NB14;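 note: growth inhibition of NB14 cells measured with a cell viability assay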
Description: SANGER: Inhibition of human NB14 cell growth in a cell viability assay.

NBsusSR = format: functional, cell-based; settings: Homo sapiens;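 note: growth inhibition of the human cell line, read out with a cell viability assay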
Description: SANGER: Inhibition of human NBsusSR cell growth in a cell viability assay.

NCI-H1048 = format: functional, cell-based; settings: Homo sapiens;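 note: growth inhibition of human NCI-H1048 cells, read out with a cell viability assay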
Description: SANGER: Inhibition of human NCI-H1048 cell growth in a cell viability assay.

NCI-H1651 = format: functional, cell-based; settings: Homo sapiens;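 note: Read-out is a cell viability assay, with IC50 expressing inhibition of NCI-H1651 cell growth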
Description: SANGER: Inhibition of human NCI-H1651 cell growth in a cell viability assay.

NCI-H1792 = format: functional, cell-based; settings: Homo sapiens;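 note: growth inhibition of human NCI-H1792 cells, read out as cell viability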
Description: SANGER: Inhibition of human NCI-H1792 cell growth in a cell viability assay.

NCI-H2347 = format: functional, cell-based; settings: Homo sapiens;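 note: growth inhibition of the cell line, read out with a cell viability assay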
Description: SANGER: Inhibition of human NCI-H2347 cell growth in a cell viability assay.

NCI-H2452 = format: functional, cell-based; settings: Homo sapiens;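 note: growth inhibition of NCI-H2452 cells, read out with a cell viability assay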
Description: SANGER: Inhibition of human NCI-H2452 cell growth in a cell viability assay.

NCI-H28 = format: functional, cell-based; settings: Homo sapiens;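 note: growth inhibition of human NCI-H28 cells, read out as cell viability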
Description: SANGER: Inhibition of human NCI-H28 cell growth in a cell viability assay.

NCI-H650 = format: functional, cell-based; settings: Homo sapiens;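 note: growth inhibition of NCI-H650 cells, read out by a viability assay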
Description: SANGER: Inhibition of human NCI-H650 cell growth in a cell viability assay.

NCI-H810 = format: functional, cell-based; settings: Homo sapiens;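 note: IC50 reflects inhibition of cancer cell line growth, read out with a cell viability assay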
Description: SANGER: Inhibition of human NCI-H810 cell growth in a cell viability assay.

OC-314 = format: functional, cell-based; settings: Homo sapiens
Description: SANGER: Inhibition of human OC-314 cell growth in a cell viability assay.

OVCAR-3 = format: functional, cell-based; settings: Homo sapiens;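 note: growth inhibition of human OVCAR-3 cells, determined by a cell viability assay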
Description: SANGER: Inhibition of human OVCAR-3 cell growth in a cell viability assay.

PC-3 = format: functional, cell-based; settings: Homo sapiens;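 note: cell viability assay measuring growth inhibition of PC-3 cells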
Description: SANGER: Inhibition of human PC-3 cell growth in a cell viability assay.

RH-18 = format: functional, cell-based; settings: Homo sapiens, Rh18;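 note: growth inhibition of human RH-18 cells, read out with a cell viability assay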
Description: SANGER: Inhibition of human RH-18 cell growth in a cell viability assay.

RO82-W-1 = format: functional, cell-based; settings: Homo sapiens;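 note: growth inhibition of human RO82-W-1 cells, measured with a cell viability assay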
Description: SANGER: Inhibition of human RO82-W-1 cell growth in a cell viability assay.

RT-112 = format: functional, cell-based; settings: Homo sapiens
Description: SANGER: Inhibition of human RT-112 cell growth in a cell viability assay.

SCC-4 = format: functional, cell-based; settings: Homo sapiens;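 note: growth inhibition of human SCC-4 cells, read out as cell viability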
Description: SANGER: Inhibition of human SCC-4 cell growth in a cell viability assay.

SK-MEL3 = format: functional, cell-based, SK-MEL-3; settings: Homo sapiens;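 note: growth inhibition of human SK-MEL-3 cells, read out with a cell viability assay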
Description: SANGER: Inhibition of human SK-MEL-3 cell growth in a cell viability assay.

SNU-449 = format: functional, cell-based; settings: Homo sapiens
Description: SANGER: Inhibition of human SNU-449 cell growth in a cell viability assay.

T-24 = format: functional, cell-based; settings: Homo sapiens;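 note: growth inhibition of T-24 cells, read out with a cell viability assay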
Description: SANGER: Inhibition of human T-24 cell growth in a cell viability assay.

T84 = format: functional, cell-based; settings: Homo sapiens;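 note: growth inhibition measured with a cell viability readout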
Description: SANGER: Inhibition of human T84 cell growth in a cell viability assay.

647-V = format: functional, cell-based; settings: Homo sapiens;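 note: growth inhibition of 647-V cells, read out with a cell viability assay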
Description: SANGER: Inhibition of human 647-V cell growth in a cell viability assay.

A 172 = format: functional, cell-based; settings: Homo sapiens;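 note: growth inhibition of A172 cells, measured with a cell viability readout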
Description: SANGER: Inhibition of human A172 cell growth in a cell viability assay.

A2058 = format: functional, cell-based; settings: Homo sapiens;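 note: reduction of A2058 cell growth, read out with a viability assay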
Description: SANGER: Inhibition of human A2058 cell growth in a cell viability assay.

A549 = format: functional, cell-based; settings: Homo sapiens;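 note: growth inhibition of A549 cells, read out with a cell viability assay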
Description: SANGER: Inhibition of human A549 cell growth in a cell viability assay.

ACHN = format: functional, cell-based; settings: Homo sapiens;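 note: cell viability read-out used to gauge how strongly growth of human ACHN cells is suppressed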
Description: SANGER: Inhibition of human ACHN cell growth in a cell viability assay.

BPH-1 = format: functional, cell-based; settings: Homo sapiens;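 note: cell viability assay measuring growth inhibition of human BPH-1 cells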
Description: SANGER: Inhibition of human BPH-1 cell growth in a cell viability assay.

CAL-51 = format: functional, cell-based; settings: Homo sapiens;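 note: human CAL-51 cell line, growth inhibition read out via a cell viability assay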
Description: SANGER: Inhibition of human CAL-51 cell growth in a cell viability assay.

CAL-85-1 = format: functional, cell-based; settings: Homo sapiens;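 note: growth inhibition of human CAL-85-1 cells, read out with a cell viability assay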
Description: SANGER: Inhibition of human CAL-85-1 cell growth in a cell viability assay.

U-118-MG = format: functional, cell-based; settings: Homo sapiens
Description: SANGER: Inhibition of human U-118-MG cell growth in a cell viability assay.

ZR-75-30 = format: functional, cell-based; settings: Homo sapiens;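 note: growth inhibition of ZR-75-30 cells, measured with a cell viability readout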
Description: SANGER: Inhibition of human ZR-75-30 cell growth in a cell viability assay.

CFPAC-1 = format: functional, cell-based; settings: Homo sapiens;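 note: cell viability readout used to gauge suppression of CFPAC-1 cell proliferation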
Description: SANGER: Inhibition of human CFPAC-1 cell growth in a cell viability assay.

NC(=O)Nc1cc(-c2cccc(F)c2)sc1C(=O)N[C@H]1CCCNC1 [AZD-7762]
IC50 (COLO-741): > 2000 nM
IC50 (GMS-10): 1350 nM
IC50 (H-EMC-SS): 284 nM
IC50 (HCC1419): > 2000 nM
IC50 (HCC1569): > 2000 nM
IC50 (HSC-2): 873 nM
IC50 (HT-3): 490 nM
IC50 (IGROV-1): 244 nM
IC50 (KNS-62): 566 nM
IC50 (KP-4): 1460 nM
IC50 (MDA-MB-175-VII): > 2000 nM
IC50 (MKN-1): 350 nM
IC50 (NB14): 61.4 nM
IC50 (NBsusSR): 318 nM
IC50 (NCI-H1048): 919 nM
IC50 (NCI-H1651): 1090 nM
IC50 (NCI-H1792): 942 nM
IC50 (NCI-H2347): 1240 nM
IC50 (NCI-H2452): 936 nM
IC50 (NCI-H28): 297 nM
IC50 (NCI-H650): 1420 nM
IC50 (NCI-H810): > 2000 nM
IC50 (OC-314): 78.1 nM
IC50 (OVCAR-3): 274 nM
IC50 (PC-3): > 2000 nM
IC50 (RH-18): > 2000 nM
IC50 (RO82-W-1): > 2000 nM
IC50 (RT-112): 499 nM
IC50 (SCC-4): 1020 nM
IC50 (SK-MEL3): > 2000 nM
IC50 (SNU-449): > 2000 nM
IC50 (T-24): 370 nM
IC50 (T84): > 2000 nM
IC50 (647-V): 618 nM
IC50 (A 172): 692 nM
IC50 (A2058): 451 nM
IC50 (A549): 1490 nM
IC50 (ACHN): 134 nM
IC50 (BPH-1): > 2000 nM
IC50 (CAL-51): 514 nM
IC50 (CAL-85-1): > 2000 nM
IC50 (U-118-MG): > 2000 nM
IC50 (ZR-75-30): > 2000 nM
IC50 (CFPAC-1): 723 nM

O=C1NC(=O)c2c1c(-c1ccccc1Cl)cc1[nH]c3ccc(O)cc3c21
IC50 (COLO-741): > 2000 nM
IC50 (GMS-10): > 2000 nM
IC50 (H-EMC-SS): > 2000 nM
IC50 (HCC1419): > 2000 nM
IC50 (HCC1569): > 2000 nM
IC50 (HSC-2): > 2000 nM
IC50 (HT-3): > 2000 nM
IC50 (IGROV-1): > 2000 nM
IC50 (KP-4): > 2000 nM
IC50 (MKN-1): > 2000 nM
IC50 (NB14): > 2000 nM
IC50 (NBsusSR): 952 nM
IC50 (NCI-H1048): > 2000 nM
IC50 (NCI-H1651): > 2000 nM
IC50 (NCI-H1792): > 2000 nM
IC50 (NCI-H2347): > 2000 nM
IC50 (NCI-H2452): > 2000 nM
IC50 (NCI-H28): > 2000 nM
IC50 (NCI-H650): > 2000 nM
IC50 (NCI-H810): > 2000 nM
IC50 (OC-314): > 2000 nM
IC50 (OVCAR-3): > 2000 nM
IC50 (PC-3): > 2000 nM
IC50 (RH-18): > 2000 nM
IC50 (RO82-W-1): > 2000 nM
IC50 (RT-112): > 2000 nM
IC50 (SCC-4): > 2000 nM
IC50 (SK-MEL3): 1310 nM
IC50 (SNU-449): > 2000 nM
IC50 (T-24): > 2000 nM
IC50 (T84): > 2000 nM
IC50 (647-V): > 2000 nM
IC50 (A 172): > 2000 nM
IC50 (A2058): > 2000 nM
IC50 (A549): > 2000 nM
IC50 (ACHN): 542 nM
IC50 (BPH-1): 1070 nM
IC50 (CAL-51): > 2000 nM
IC50 (CAL-85-1): > 2000 nM
IC50 (U-118-MG): > 2000 nM
IC50 (ZR-75-30): > 2000 nM
IC50 (CFPAC-1): > 2000 nM

CN(C)CCOc1ccc(-c2nc(-c3ccncc3)c(-c3ccc4c(c3)CC/C4=N\O)[nH]2)cc1 [SB590885]
IC50 (COLO-741): > 5000 nM
IC50 (GMS-10): > 5000 nM
IC50 (H-EMC-SS): 351 nM
IC50 (HCC1419): > 5000 nM
IC50 (HCC1569): > 5000 nM
IC50 (HSC-2): > 5000 nM
IC50 (HT-3): > 5000 nM
IC50 (IGROV-1): > 5000 nM
IC50 (KNS-62): > 5000 nM
IC50 (MDA-MB-175-VII): > 5000 nM
IC50 (NB14): > 5000 nM
IC50 (NBsusSR): > 5000 nM
IC50 (NCI-H1048): > 5000 nM
IC50 (NCI-H1651): > 5000 nM
IC50 (NCI-H1792): > 5000 nM
IC50 (NCI-H2347): > 5000 nM
IC50 (NCI-H2452): > 5000 nM
IC50 (NCI-H28): > 5000 nM
IC50 (NCI-H650): > 5000 nM
IC50 (NCI-H810): > 5000 nM
IC50 (OC-314): > 5000 nM
IC50 (OVCAR-3): > 5000 nM
IC50 (PC-3): > 5000 nM
IC50 (RH-18): > 5000 nM
IC50 (RO82-W-1): > 5000 nM
IC50 (RT-112): > 5000 nM
IC50 (SCC-4): > 5000 nM
IC50 (SK-MEL3): 818 nM
IC50 (SNU-449): > 5000 nM
IC50 (T-24): > 5000 nM
IC50 (T84): > 5000 nM
IC50 (647-V): > 5000 nM
IC50 (A2058): > 5000 nM
IC50 (A549): > 5000 nM
IC50 (BPH-1): > 5000 nM
IC50 (CAL-51): > 5000 nM
IC50 (CAL-85-1): > 5000 nM
IC50 (U-118-MG): > 5000 nM
IC50 (ZR-75-30): > 5000 nM
IC50 (CFPAC-1): > 5000 nM

NC1(c2ccc(-c3nc4ccn5c(=O)[nH]nc5c4cc3-c3ccccc3)cc2)CCC1 [MK-2206]
IC50 (COLO-741): > 4000 nM
IC50 (GMS-10): > 4000 nM
IC50 (H-EMC-SS): 499 nM
IC50 (HCC1419): 489 nM
IC50 (HCC1569): > 4000 nM
IC50 (HSC-2): > 4000 nM
IC50 (HT-3): > 4000 nM
IC50 (IGROV-1): 552 nM
IC50 (KNS-62): 3630 nM
IC50 (MDA-MB-175-VII): 137 nM
IC50 (NB14): > 4000 nM
IC50 (NBsusSR): > 4000 nM
IC50 (NCI-H1048): 2970 nM
IC50 (NCI-H1651): > 4000 nM
IC50 (NCI-H1792): > 4000 nM
IC50 (NCI-H2347): > 4000 nM
IC50 (NCI-H2452): > 4000 nM
IC50 (NCI-H28): > 4000 nM
IC50 (NCI-H650): > 4000 nM
IC50 (NCI-H810): > 4000 nM
IC50 (OC-314): 2150 nM
IC50 (OVCAR-3): 3410 nM
IC50 (PC-3): > 4000 nM
IC50 (RH-18): > 4000 nM
IC50 (RO82-W-1): > 4000 nM
IC50 (RT-112): 3520 nM
IC50 (SCC-4): > 4000 nM
IC50 (SK-MEL3): > 4000 nM
IC50 (SNU-449): > 4000 nM
IC50 (T-24): 2480 nM
IC50 (T84): > 4000 nM
IC50 (647-V): > 4000 nM
IC50 (A549): > 4000 nM
IC50 (BPH-1): > 4000 nM
IC50 (CAL-51): > 4000 nM
IC50 (CAL-85-1): > 4000 nM
IC50 (U-118-MG): > 4000 nM
IC50 (ZR-75-30): > 4000 nM
IC50 (CFPAC-1): > 4000 nM
